In ChEMBL document CHEMBL1201862, “PubChem BioAssay data set” (2004):
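Briefly, cells in 96-well plates were exposed to five compound concentrations for 48 h, and endpoints were estimated by linear interpolation. GI50 marks 50% less growth.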 Calls of active or inactive are those of the source. No stated cut-off is given here; in the data, active = GI50 up to about 1.1 µM and inactive = higher.

What was measured:
Assay in all cases: NCI anticancer screen, dose series, 48 h
RPMI-8226 = tested on: RPMI-8226
Malme-3M = tested on: Malme-3M
MDA-MB-231 = tested on: MDA-MB-231
LOX IMVI = tested on: LOX IMVI
CAKI-1 = tested on: CAKI-1
SK-MEL-28 = tested on: SK-MEL-28
SF-268 = tested on: SF-268
SW-620 = tested on: SW-620
DU-145 = tested on: DU-145
HOP-62 = tested on: HOP-62
CCRF-CEM = tested on: CCRF-CEM
KM12 = tested on: KM12
NCI-H460 = tested on: NCI-H460
SK-MEL-5 = tested on: SK-MEL-5
UACC-62 = tested on: UACC-62
EKVX = tested on: EKVX
HOP-92 = tested on: HOP-92
HT-29 = tested on: HT-29
SR = tested on: SR
MDA-N = tested on: MDA-N

Measured: GI50

CC(C)c1ccc(/C=C2/C=C(c3ccc4ccccc4c3)OC2=O)cc1
inactive: RPMI-8226 31.3 µM | Malme-3M 15.8 µM | MDA-MB-231 99.8 µM | LOX IMVI 40.2 µM | CAKI-1 > 82.4 µM | SK-MEL-28 55.5 µM | SF-268 > 100 µM | SW-620 > 86.5 µM | DU-145 > 100 µM | HOP-62 > 100 µM | CCRF-CEM 2.56 µM | KM12 62.1 µM | NCI-H460 > 78.2 µM | SK-MEL-5 15.2 µM | UACC-62 35.4 µM | EKVX 40 µM | HOP-92 37.8 µM | HT-29 > 95.3 µM | SR 5.94 µM

O=c1c(Nc2ccccc2)cn(CCOc2ccccc2)c(=O)n1CCOc1ccccc1
inactive: RPMI-8226 > 100 µM | Malme-3M 79.6 µM | LOX IMVI > 100 µM | CAKI-1 81.7 µM | SK-MEL-28 > 100 µM | SF-268 16.5 µM | SW-620 > 100 µM | DU-145 53 µM | MDA-N > 100 µM | HOP-62 17.2 µM | CCRF-CEM > 100 µM | KM12 > 100 µM | NCI-H460 > 100 µM | SK-MEL-5 47.9 µM | UACC-62 41.2 µM | EKVX 33.1 µM | HOP-92 35.6 µM | HT-29 > 100 µM | SR > 100 µM

Nc1cccc(/C=C/CN2CCN(CCOC(c3ccccc3)c3ccccc3)CC2)c1
inactive: RPMI-8226 3 µM | Malme-3M 18.2 µM | MDA-MB-231 15 µM | LOX IMVI 15.6 µM | CAKI-1 19.8 µM | SK-MEL-28 14 µM | SF-268 17.7 µM | SW-620 15.9 µM | DU-145 13.6 µM | HOP-62 13.8 µM | CCRF-CEM 9.98 µM | KM12 11.2 µM | NCI-H460 13.6 µM | SK-MEL-5 12.6 µM | UACC-62 17.4 µM | EKVX 16.4 µM | HOP-92 12.6 µM | HT-29 3.15 µM | SR 4.61 µM

Cc1ncc(CO)c(CN)c1O
inactive: RPMI-8226 > 100 µM | Malme-3M > 100 µM | MDA-MB-231 > 100 µM | LOX IMVI > 100 µM | CAKI-1 > 100 µM | SK-MEL-28 > 100 µM | SF-268 > 100 µM | SW-620 > 100 µM | DU-145 > 100 µM | MDA-N > 100 µM | HOP-62 > 100 µM | CCRF-CEM > 100 µM | KM12 > 100 µM | NCI-H460 > 100 µM | SK-MEL-5 > 100 µM | UACC-62 > 100 µM | EKVX > 100 µM | HT-29 > 100 µM

CSc1nnc(SC)nn1
inactive: RPMI-8226 13.3 µM | Malme-3M 13 µM | MDA-MB-231 18.2 µM | LOX IMVI 19.6 µM | CAKI-1 16.9 µM | SF-268 15.9 µM | SW-620 17.2 µM | DU-145 20.4 µM | MDA-N 16.1 µM | HOP-62 15.3 µM | CCRF-CEM 1.81 µM | KM12 15.3 µM | NCI-H460 18.2 µM | SK-MEL-5 15.8 µM | UACC-62 18.2 µM | EKVX 16.6 µM | HOP-92 3.84 µM | HT-29 18.9 µM

CCCCCCCCCCCCNC(C)=O
inactive: RPMI-8226 13.4 µM | Malme-3M 17.7 µM | MDA-MB-231 13.8 µM | LOX IMVI 6.85 µM | CAKI-1 17 µM | SK-MEL-28 17.6 µM | SF-268 14.3 µM | SW-620 16.8 µM | DU-145 30.9 µM | MDA-N 16.7 µM | HOP-62 14.3 µM | CCRF-CEM 14.4 µM | KM12 17.8 µM | NCI-H460 17.7 µM | SK-MEL-5 16.8 µM | UACC-62 15.6 µM | EKVX 11.4 µM | HOP-92 2.26 µM | HT-29 19.5 µM

[O-]c1c[n+](CCCC[n+]2cc([O-])on2)no1
inactive: RPMI-8226 > 100 µM | Malme-3M > 100 µM | MDA-MB-231 > 100 µM | LOX IMVI > 100 µM | CAKI-1 > 100 µM | SK-MEL-28 > 100 µM | SF-268 > 100 µM | SW-620 > 100 µM | DU-145 > 100 µM | MDA-N > 100 µM | HOP-62 > 100 µM | CCRF-CEM > 100 µM | KM12 > 100 µM | NCI-H460 > 100 µM | SK-MEL-5 > 100 µM | UACC-62 > 100 µM | EKVX > 100 µM | HOP-92 > 100 µM | HT-29 > 100 µM

O=[N+]([O-])c1ccc(-n2nnc(C3=NCCN3)c2-c2ccc(Cl)cc2)cc1
inactive: RPMI-8226 > 100 µM | Malme-3M > 100 µM | LOX IMVI > 100 µM | CAKI-1 > 100 µM | SK-MEL-28 > 100 µM | SF-268 73.3 µM | SW-620 > 100 µM | HOP-62 > 100 µM | CCRF-CEM > 100 µM | KM12 > 100 µM | NCI-H460 91.4 µM | SK-MEL-5 > 100 µM | UACC-62 > 100 µM | EKVX > 100 µM | HOP-92 > 100 µM | HT-29 66.8 µM | SR 27.2 µM

O=S(=O)(O)c1ccc(/N=N/c2ccc(/N=N/c3c(O)ccc4cc(S(=O)(=O)O)ccc34)cc2)cc1
inactive: RPMI-8226 > 100 µM | Malme-3M > 100 µM | MDA-MB-231 > 100 µM | CAKI-1 > 100 µM | SK-MEL-28 > 100 µM | SF-268 > 100 µM | SW-620 > 100 µM | HOP-62 > 100 µM | CCRF-CEM > 100 µM | KM12 > 100 µM | NCI-H460 > 100 µM | SK-MEL-5 > 100 µM | UACC-62 > 100 µM | EKVX > 100 µM | HOP-92 > 100 µM | HT-29 > 100 µM | SR > 100 µM

C=C[C@@]1(C)CC2CC[C@]3(C)C(C)=CC(=O)CC3[C@]2(C)CC1O (stereo partly drawn)
inactive: RPMI-8226 > 100 µM | Malme-3M > 100 µM | LOX IMVI > 100 µM | CAKI-1 > 100 µM | SK-MEL-28 > 100 µM | SF-268 > 100 µM | SW-620 > 100 µM | DU-145 > 100 µM | HOP-62 > 100 µM | CCRF-CEM 38.3 µM | KM12 85.3 µM | NCI-H460 > 100 µM | SK-MEL-5 > 100 µM | UACC-62 > 100 µM | EKVX > 100 µM | HOP-92 > 100 µM | HT-29 > 100 µM | SR > 100 µM

CC(=O)Nc1ccc(S(=O)(=O)Nc2nnc(S(N)(=O)=O)s2)cc1
inactive: RPMI-8226 > 100 µM | Malme-3M > 100 µM | MDA-MB-231 > 100 µM | LOX IMVI > 100 µM | CAKI-1 > 100 µM | SF-268 > 100 µM | SW-620 > 100 µM | DU-145 > 100 µM | KM12 > 100 µM | NCI-H460 > 100 µM | UACC-62 > 100 µM | EKVX > 100 µM | HOP-92 > 100 µM | HT-29 > 100 µM | SR > 100 µM
